Source: patent US9738634B2, “Heterocyclic amide compound and herbicide” (SYNGENTA PARTICIPATIONS AG, priority 2013, dated 2017)

Columns and labels:
Format in all cases: in vivo
Conditions in all cases: treatment dosage 320 g/ha
barnyard grass [1] = test: Test Example 1: weedkilling efficacy, preemergent weed treatment in the submerged state; A: barnyard grass
How it was run: (§1)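 Pots of alluvial soil were flooded to a 4 cm depth. Mixed weed seeds were sown and 2.5 leaf-stage rice seedlings transplanted. On sowing day, water-diluted emulsion was applied to the water surface (dose in g/ha). After 3 weeks at 25–30 °C, effects were rated.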

bulrush [2] = test: Test Example 1: weedkilling efficacy, preemergent weed treatment in the submerged state; B: bulrush
How it was run: as §1

oval-leafed pondweed [3] = test: Test Example 1: weedkilling efficacy, preemergent weed treatment in the submerged state; C: oval-leafed pondweed
How it was run: as §1

transplanted rice = test: Test Example 1: preemergent weed treatment in the submerged state, effect on crop; a: transplanted rice
How it was run: as §1

barnyard grass [4] = test: Test Example 2: weedkilling efficacy, growth period weed treatment in the submerged state; A: barnyard grass
How it was run: (§2)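 Weeds treated at the 1-2 leaf stage by application of diluted emulsion onto floodwater (4 cm depth, alluvial soil) at specified g/ha. Grown in greenhouse at 25 to 30° C; herbicidal effect rated three weeks after treatment.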

bulrush [5] = test: Test Example 2: weedkilling efficacy, growth period weed treatment in the submerged state; B: bulrush
How it was run: as §2

oval-leafed pondweed [6] = test: Test Example 2: weedkilling efficacy, growth period weed treatment in the submerged state; C: oval-leafed pondweed
How it was run: as §2

crabgrass [7] = test: Test Example 3: weedkilling efficacy through soil treatment; D: crabgrass
How it was run: (§3)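 Crop and weed responses were judged three weeks after a uniform surface spray of the water-diluted emulsion at the given g/ha rate. Seeds sat beneath about 1.5 cm of sterilized diluvial soil, and boxes stood in a greenhouse at 25 to 30° C.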

green foxtail [8] = test: Test Example 3: weedkilling efficacy through soil treatment; E: green foxtail
How it was run: as §3

barnyard grass [9] = test: Test Example 3: weedkilling efficacy through soil treatment; F: barnyard grass
How it was run: as §3

wild oat [10] = test: Test Example 3: weedkilling efficacy through soil treatment; G: wild oat
How it was run: as §3

black-grass [11] = test: Test Example 3: weedkilling efficacy through soil treatment; H: black-grass
How it was run: as §3

Italian ryegrass [12] = test: Test Example 3: weedkilling efficacy through soil treatment; I: Italian ryegrass
How it was run: as §3

common wind-grass [13] = test: Test Example 3: weedkilling efficacy through soil treatment; J: common wind-grass
How it was run: as §3

Indian mallow [14] = test: Test Example 3: weedkilling efficacy through soil treatment; K: Indian mallow
How it was run: as §3

redroot pigweed [15] = test: Test Example 3: weedkilling efficacy through soil treatment; L: redroot pigweed
How it was run: as §3

chickweed [16] = test: Test Example 3: weedkilling efficacy through soil treatment; N: chickweed
How it was run: as §3

catchweed [17] = test: Test Example 3: weedkilling efficacy through soil treatment; O: catchweed
How it was run: as §3

birds-eye speedwell [18] = test: Test Example 3: weedkilling efficacy through soil treatment; p: birds-eye speedwell
How it was run: as §3

directly sown rice [19] = test: Test Example 3: soil treatment, effect on crop; b: directly sown rice
How it was run: as §3

corn [20] = test: Test Example 3: soil treatment, effect on crop; c: corn
How it was run: as §3

soybean [21] = test: Test Example 3: soil treatment, effect on crop; d: soybean
How it was run: as §3

wheat [22] = test: Test Example 3: soil treatment, effect on crop; e: wheat
How it was run: as §3

beet [23] = test: Test Example 3: soil treatment, effect on crop; f: beet
How it was run: as §3

rapeseed [24] = test: Test Example 3: soil treatment, effect on crop; g: rapeseed
How it was run: as §3

crabgrass [25] = test: Test Example 4: weedkilling efficacy by foliar treatment; D: crabgrass
How it was run: (§4)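 Seeds are spot-sown into sterilized diluvial soil and covered with about 1.5 cm of soil. After 14 days' greenhouse growth at 25 to 30° C, plants are sprayed on stems and leaves with diluted emulsion at the stated g/ha rate, then scored at 3 weeks.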

green foxtail [26] = test: Test Example 4: weedkilling efficacy by foliar treatment; E: green foxtail
How it was run: as §4

barnyard grass [27] = test: Test Example 4: weedkilling efficacy by foliar treatment; F: barnyard grass
How it was run: as §4

wild oat [28] = test: Test Example 4: weedkilling efficacy by foliar treatment; G: wild oat
How it was run: as §4

black-grass [29] = test: Test Example 4: weedkilling efficacy by foliar treatment; H: black-grass
How it was run: as §4

Italian ryegrass [30] = test: Test Example 4: weedkilling efficacy by foliar treatment; I: Italian ryegrass
How it was run: as §4

common wind-grass [31] = test: Test Example 4: weedkilling efficacy by foliar treatment; J: common wind-grass
How it was run: as §4

Indian mallow [32] = test: Test Example 4: weedkilling efficacy by foliar treatment; K: Indian mallow
How it was run: as §4

redroot pigweed [33] = test: Test Example 4: weedkilling efficacy by foliar treatment; L: redroot pigweed
How it was run: as §4

fig-leafed goosefoot = test: Test Example 4: weedkilling efficacy by foliar treatment; M: fig-leafed goosefoot
How it was run: as §4

chickweed [34] = test: Test Example 4: weedkilling efficacy by foliar treatment; N: chickweed
How it was run: as §4

catchweed [35] = test: Test Example 4: weedkilling efficacy by foliar treatment; O: catchweed
How it was run: as §4

birds-eye speedwell [36] = test: Test Example 4: weedkilling efficacy by foliar treatment; p: birds-eye speedwell
How it was run: as §4

directly sown rice [37] = test: Test Example 4: foliar treatment, effect on crop; b: directly sown rice
How it was run: as §4

corn [38] = test: Test Example 4: foliar treatment, effect on crop; c: corn
How it was run: as §4

soybean [39] = test: Test Example 4: foliar treatment, effect on crop; d: soybean
How it was run: as §4

wheat [40] = test: Test Example 4: foliar treatment, effect on crop; e: wheat
How it was run: as §4

beet [41] = test: Test Example 4: foliar treatment, effect on crop; f: beet
How it was run: as §4

rapeseed [42] = test: Test Example 4: foliar treatment, effect on crop; g: rapeseed
How it was run: as §4

CCOc1cc(C(F)(F)F)cc(NC(=O)C(C)(C)N2COC(C)=C(c3ccccc3)C2=O)n1 [B-2-50]
A (barnyard grass) weedkilling efficacy grade (barnyard grass [1]): 5 (weed kill ratio 90% or more, (practically complete withering))
B (bulrush) weedkilling efficacy grade (bulrush [2]): 5 (weed kill ratio 90% or more, (practically complete withering))
C (oval-leafed pondweed) weedkilling efficacy grade (oval-leafed pondweed [3]): 5 (weed kill ratio 90% or more, (practically complete withering))
a (transplanted rice) effect on crop grade (transplanted rice): 0 (weed kill ratio 5% or less (practically no effect))
A (barnyard grass) weedkilling efficacy grade (barnyard grass [4]): 5 (weed kill ratio 90% or more, (practically complete withering))
B (bulrush) weedkilling efficacy grade (bulrush [5]): 4 (weed kill ratio 70% or more, less than 90%)
C (oval-leafed pondweed) weedkilling efficacy grade (oval-leafed pondweed [6]): 4 (weed kill ratio 70% or more, less than 90%)
D (crabgrass) weedkilling efficacy grade (crabgrass [7]): 5 (weed kill ratio 90% or more, (practically complete withering))
E (green foxtail) weedkilling efficacy grade (green foxtail [8]): 5 (weed kill ratio 90% or more, (practically complete withering))
F (barnyard grass) weedkilling efficacy grade (barnyard grass [9]): 4 (weed kill ratio 70% or more, less than 90%)
G (wild oat) weedkilling efficacy grade (wild oat [10]): 0 (weed kill ratio 5% or less (practically no effect))
H (black-grass) weedkilling efficacy grade (black-grass [11]): 2 (weed kill ratio 20% or more, less than 40%)
I (Italian ryegrass) weedkilling efficacy grade (Italian ryegrass [12]): 3 (weed kill ratio 40% or more, less than 70%)
J (common wind-grass) weedkilling efficacy grade (common wind-grass [13]): 5 (weed kill ratio 90% or more, (practically complete withering))
K (Indian mallow) weedkilling efficacy grade (Indian mallow [14]): 0 (weed kill ratio 5% or less (practically no effect))
L (redroot pigweed) weedkilling efficacy grade (redroot pigweed [15]): 2 (weed kill ratio 20% or more, less than 40%)
N (chickweed) weedkilling efficacy grade (chickweed [16]): 0 (weed kill ratio 5% or less (practically no effect))
O (catchweed) weedkilling efficacy grade (catchweed [17]): 0 (weed kill ratio 5% or less (practically no effect))
P (birds-eye speedwell) weedkilling efficacy grade (birds-eye speedwell [18]): 0 (weed kill ratio 5% or less (practically no effect))
b (directly sown rice) effect on crop grade (directly sown rice [19]): 1 (weed kill ratio 5% or more, less than 20%)
c (corn) effect on crop grade (corn [20]): 1 (weed kill ratio 5% or more, less than 20%)
d (soybean) effect on crop grade (soybean [21]): 0 (weed kill ratio 5% or less (practically no effect))
e (wheat) effect on crop grade (wheat [22]): 0 (weed kill ratio 5% or less (practically no effect))
f (beet) effect on crop grade (beet [23]): 0 (weed kill ratio 5% or less (practically no effect))
g (rapeseed) effect on crop grade (rapeseed [24]): 0 (weed kill ratio 5% or less (practically no effect))
D (crabgrass) weedkilling efficacy grade (crabgrass [25]): 2 (weed kill ratio 20% or more, less than 40%)
E (green foxtail) weedkilling efficacy grade (green foxtail [26]): 2 (weed kill ratio 20% or more, less than 40%)
F (barnyard grass) weedkilling efficacy grade (barnyard grass [27]): 0 (weed kill ratio 5% or less (practically no effect))
G (wild oat) weedkilling efficacy grade (wild oat [28]): 0 (weed kill ratio 5% or less (practically no effect))
H (black-grass) weedkilling efficacy grade (black-grass [29]): 1 (weed kill ratio 5% or more, less than 20%)
I (Italian ryegrass) weedkilling efficacy grade (Italian ryegrass [30]): 1 (weed kill ratio 5% or more, less than 20%)
J (common wind-grass) weedkilling efficacy grade (common wind-grass [31]): 1 (weed kill ratio 5% or more, less than 20%)
K (Indian mallow) weedkilling efficacy grade (Indian mallow [32]): 1 (weed kill ratio 5% or more, less than 20%)
L (redroot pigweed) weedkilling efficacy grade (redroot pigweed [33]): 0 (weed kill ratio 5% or less (practically no effect))
M (fig-leafed goosefoot) weedkilling efficacy grade (fig-leafed goosefoot): 3 (weed kill ratio 40% or more, less than 70%)
N (chickweed) weedkilling efficacy grade (chickweed [34]): 0 (weed kill ratio 5% or less (practically no effect))
O (catchweed) weedkilling efficacy grade (catchweed [35]): 0 (weed kill ratio 5% or less (practically no effect))
P (birds-eye speedwell) weedkilling efficacy grade (birds-eye speedwell [36]): 0 (weed kill ratio 5% or less (practically no effect))
b (directly sown rice) effect on crop grade (directly sown rice [37]): 0 (weed kill ratio 5% or less (practically no effect))
c (corn) effect on crop grade (corn [38]): 0 (weed kill ratio 5% or less (practically no effect))
d (soybean) effect on crop grade (soybean [39]): 0 (weed kill ratio 5% or less (practically no effect))
e (wheat) effect on crop grade (wheat [40]): 0 (weed kill ratio 5% or less (practically no effect))
f (beet) effect on crop grade (beet [41]): 0 (weed kill ratio 5% or less (practically no effect))
g (rapeseed) effect on crop grade (rapeseed [42]): 0 (weed kill ratio 5% or less (practically no effect))
